Measured values as given in patent US20100298141A1, “SUBSTITUTED PYRIDINE N-OXIDE HERBICIDES” (E. I. DU PONT DE NEMOURS AND COMPANY, priority 2007, published 2010).

Experiments:
[1] = test system: barnyardgrass; assay: Test A pre-/postemergence greenhouse test; assay type: in vivo, Echinochloa crus-galli; settings: for Barnyardgrass plant response rating: 0 to 100 scale
In short: (§1)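 Seeds sown in a loam soil–sand blend got a preemergence directed soil spray of compound in a non-phytotoxic solvent mixture containing surfactant. Postemergence sprays of the same formulation went at the same time onto plants 2–10 cm tall at the one- to two-leaf stage. Injury was scored visually against untreated controls after about ten days in the greenhouse.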

[2] = test system: giant foxtail; assay: Test A pre-/postemergence greenhouse test; assay type: in vivo, Setaria faberi; settings: for Foxtail, Giant plant response rating: 0 to 100 scale
In short: as §1

[3] = test system: morningglory; assay: Test A pre-/postemergence greenhouse test; assay type: in vivo, Ipomoea spp.; settings: for Morningglory plant response rating: 0 to 100 scale
In short: as §1

[4] = test system: redroot pigweed; assay: Test A pre-/postemergence greenhouse test; assay type: in vivo, Amaranthus retroflexus; settings: for Pigweed plant response rating: 0 to 100 scale
In short: as §1

[5] = test system: wheat; assay: Test A pre-/postemergence greenhouse test; assay type: in vivo, Triticum aestivum; settings: for Wheat plant response rating: 0 to 100 scale
In short: as §1

[6] = test system: corn; assay: Test A pre-/postemergence greenhouse test; assay type: in vivo, Zea mays; settings: for Corn plant response rating: 0 to 100 scale
In short: as §1

[7] = test system: wheat; assay: Test C pre-/postemergence test; assay type: in vivo, Triticum aestivum; settings: for Wheat plant response rating: preemergence, scale 0 (no effect) to 100 (complete control); for Plant response rating, Wheat: scale 0 to 100, 0 no effect, 100 complete control
In short: (§2)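 Compounds in a non-phytotoxic solvent with surfactant applied preemergence to seeded pots and, at the same time, postemergence to plants 2–18 cm tall (1- to 4-leaf stage). Paddy tests: pots flooded to 3 cm, compound applied into the water, depth held throughout.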

[8] = test system: bermudagrass; assay: Test C pre-/postemergence test; assay type: in vivo, Cynodon dactylon; settings: for Plant response rating, Bermudagrass: scale 0 to 100, 0 no effect, 100 complete control
In short: as §2

[9] = test system: Surinam grass; assay: Test C pre-/postemergence test; assay type: in vivo, Brachiaria decumbens; settings: for Surinam Grass plant response rating: preemergence, scale 0 (no effect) to 100 (complete control); for Plant response rating, Surinam Grass: scale 0 to 100, 0 no effect, 100 complete control
In short: as §2

[10] = test system: crabgrass; assay: Test C pre-/postemergence test; assay type: in vivo, Digitaria sanguinalis; settings: for Plant response rating, Crabgrass, Large: scale 0 to 100, 0 no effect, 100 complete control
In short: as §2

[11] = test system: Goosegrass; assay: Test C pre-/postemergence test; assay type: in vivo, Eleusin indica; settings: for Plant response rating, Goosegrass: scale 0 to 100, 0 no effect, 100 complete control
In short: as §2

[12] = test system: lambsquarters; assay: Test C pre-/postemergence test; assay type: in vivo, Chenopodium album; settings: for Plant response rating, Lambsquarters: scale 0 to 100, 0 no effect, 100 complete control
In short: as §2

[13] = test system: eastern black nightshade; assay: Test C pre-/postemergence test; assay type: in vivo, Solanum ptycanthum
In short: as §2

[14] = test system: pigweed; assay: Test C pre-/postemergence test; assay type: in vivo, Amaranthus retroflexus; settings: for Plant response rating, Pigweed: scale 0 to 100, 0 no effect, 100 complete control
In short: as §2

[15] = test system: common (oilseed) sunflower; assay: Test C pre-/postemergence test; assay type: in vivo, Helianthus annuus; settings: for Sunflower plant response rating: preemergence, scale 0 (no effect) to 100 (complete control)
In short: as §2

[16] = test system: rice; assay: Test C flooded paddy test; assay type: in vivo, Oryza sativa; settings: Flood
In short: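 Ratings were visual and made relative to untreated controls after 13 to 15 greenhouse days.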

[17] = Postemergence, 125 g ai/ha, 0 is no effect, 100 is complete control
[18] = Postemergence, 500 g ai/ha, 0 is no effect, 100 is complete control
[19] = Preemergence, 125 g ai/ha, 0 no effect, 100 complete control
[20] = Preemergence, 500 g ai/ha, 0 to 100 scale where 0 is no effect and 100 is complete control
[21] = 31 g ai/ha, Preemergence, scale 0 to 100
[22] = 62 g ai/ha, preemergence, scale 0 (no effect) to 100 (complete control)
[23] = preemergence, 125 g ai/ha, scale 0 (no effect) to 100 (complete control)

## Cn1nc(C(F)(F)F)c(C[S+]([O-])c2cccc[n+]2[O-])c1OC(F)F (stereo not shown) [Compound 3]
[1]; [17]
  Barnyardgrass plant response rating: 80
[1]; [18]
  Barnyardgrass plant response rating: 90
[1]; [19]
  Barnyardgrass plant response rating: 80
[1]; [20]
  Plant response rating, Barnyardgrass: 100
[2]; [17]
  Foxtail, Giant plant response rating: 80
[2]; [18]
  Foxtail, Giant plant response rating: 90
[2]; [19]
  Foxtail, Giant plant response rating: 100
[2]; [20]
  Plant response rating, Foxtail, Giant: 100
[3]; [17]
  Morningglory plant response rating: 70
[3]; [18]
  Morningglory plant response rating: 90
[3]; [19]
  Morningglory plant response rating: 80
[3]; [20]
  Plant response rating, Morningglory: 100
[4]; [17]
  Pigweed plant response rating: 80
[4]; [18]
  Pigweed plant response rating: 90
[4]; [19]
  Pigweed plant response rating: 100
[4]; [20]
  Plant response rating, Pigweed: 100
[5]; [17]
  Wheat plant response rating: 60
[5]; [18]
  Wheat plant response rating: 70
[5]; [19]
  Wheat plant response rating: 60
[5]; [20]
  Plant response rating, Wheat: 100
[6]; [17]
  Corn plant response rating: 60
[6]; [18]
  Corn plant response rating: 80
[6]; [19]
  Corn plant response rating: 30
[6]; [20]
  Plant response rating, Corn: 90
[7]; 62 g ai/ha
  Wheat plant response rating: 20
[7]; Postemergence, 31 g ai/ha
  Plant response rating (0 to 100), Wheat: 0
[7]; Postemergence, 62 g ai/ha
  Plant response rating (0 to 100), Wheat: 0
[7]; Postemergence, 125 g ai/ha
  Plant response rating, Wheat: 0
[7]; Postemergence, 250 g ai/ha
  Plant response rating, Wheat: 0
[7]; Preemergence, 250 g ai/ha
  Plant response rating (0 to 100), Wheat: 80
[7]; 125 g ai/ha
  Wheat plant response rating: 70
[8]; [21]
  Bermudagrass plant response rating: 80
[8]; [22]
  Bermudagrass plant response rating: 100
[8]; Postemergence, 31 g ai/ha
  Plant response rating (0 to 100), Bermudagrass: 0
[8]; Postemergence, 125 g ai/ha
  Plant response rating, Bermudagrass: 50
[8]; Postemergence, 250 g ai/ha
  Plant response rating, Bermudagrass: 50
[8]; Preemergence, 250 g ai/ha
  Plant response rating (0 to 100), Bermudagrass: 100
[8]; [23]
  Bermudagrass plant response rating: 100
[9]; 62 g ai/ha
  Surinam Grass plant response rating: 100
[9]; Postemergence, 31 g ai/ha
  Plant response rating (0 to 100), Surinam Grass: 0
[9]; Postemergence, 62 g ai/ha
  Plant response rating (0 to 100), Surinam Grass: 0
[9]; Postemergence, 125 g ai/ha
  Plant response rating, Surinam Grass: 50
[9]; Postemergence, 250 g ai/ha
  Plant response rating, Surinam Grass: 55
[9]; Preemergence, 250 g ai/ha
  Plant response rating (0 to 100), Surinam Grass: 100
[9]; 125 g ai/ha
  Surinam Grass plant response rating: 100
[10]; [21]
  Crabgrass, Large plant response rating: 45
[10]; [22]
  Crabgrass, Large plant response rating: 98
[10]; Postemergence, 31 g ai/ha
  Plant response rating (0 to 100), Crabgrass, Large: 0
[10]; Postemergence, 62 g ai/ha
  Plant response rating, Crabgrass, Large: 0
[10]; Postemergence, 125 g ai/ha
  Plant response rating, Crabgrass, Large: 50
[10]; Postemergence, 250 g ai/ha
  Plant response rating, Crabgrass, Large: 70
[10]; Preemergence, 250 g ai/ha
  Plant response rating (0 to 100), Crabgrass, Large: 100
[10]; [23]
  Crabgrass, Large plant response rating: 100
[11]; [21]
  Goosegrass plant response rating: 85
[11]; [22]
  Goosegrass plant response rating: 100
[11]; Postemergence, 31 g ai/ha
  Plant response rating (0 to 100), Goosegrass: 20
[11]; Postemergence, 62 g ai/ha
  Plant response rating, Goosegrass: 50
[11]; Postemergence, 125 g ai/ha
  Plant response rating, Goosegrass: 65
[11]; Postemergence, 250 g ai/ha
  Plant response rating, Goosegrass: 80
[11]; Preemergence, 250 g ai/ha
  Plant response rating (0 to 100), Goosegrass: 100
[11]; [23]
  Goosegrass plant response rating: 100
[12]; [21]
  Lambsquarters plant response rating: 98
[12]; [22]
  Lambsquarters plant response rating: 100
[12]; Postemergence, 31 g ai/ha
  Plant response rating (0 to 100), Lambsquarters: 10
[12]; Postemergence, 62 g ai/ha
  Plant response rating, Lambsquarters: 15
[12]; Postemergence, 125 g ai/ha
  Plant response rating, Lambsquarters: 20
[12]; Postemergence, 250 g ai/ha
  Plant response rating, Lambsquarters: 20
[12]; Preemergence, 250 g ai/ha
  Plant response rating (0 to 100), Lambsquarters: 100
[12]; [23]
  Lambsquarters plant response rating: 100
[13]; [21]
  Nightshade plant response rating: 85
[13]; [22]
  Nightshade plant response rating: 98
[13]; Preemergence, 250 g ai/ha
  Plant response rating (0 to 100), Nightshade: 100
[13]; [23]
  Nightshade plant response rating: 98
[14]; [21]
  Pigweed plant response rating: 75
[14]; [22]
  Pigweed plant response rating: 100
[14]; Postemergence, 31 g ai/ha
  Plant response rating (0 to 100), Pigweed: 0
[14]; Postemergence, 62 g ai/ha
  Plant response rating (0 to 100), Pigweed: 0
[14]; Postemergence, 125 g ai/ha
  Plant response rating, Pigweed: 10
[14]; Postemergence, 250 g ai/ha
  Plant response rating, Pigweed: 60
[14]; Preemergence, 250 g ai/ha
  Plant response rating (0 to 100), Pigweed: 100
[14]; [23]
  Pigweed plant response rating: 100
[15]; 62 g ai/ha
  Sunflower plant response rating: 15
[15]; Preemergence, 250 g ai/ha
  Plant response rating (0 to 100), Sunflower: 95
[15]; 125 g ai/ha
  Sunflower plant response rating: 70
[16]; 31 g ai/ha, scale 0 to 100 (0 no effect, 100 complete control)
  Plant response rating, Rice: 0
[16]; 62 g ai/ha, scale 0 to 100, 0 no effect, 100 complete control, 13 to 15 days
  Plant response rating, Rice: 0
[16]; 125 g ai/ha, scale 0 to 100, 0 no effect, 100 complete control, 13 to 15 days
  Plant response rating, Rice: 60
[16]; 250 g ai/ha, scale 0 to 100 (0 no effect, 100 complete control)
  Plant response rating, Rice: 70
